Columns and labels:
TYK2 JH2 = biological target: T1, TYK2 JH2 (Homo sapiens, UniProt P29597); test: TYK2 JH2 binding assay (KINOMEscan KdELECT competitive binding); details: TYK2 JH2 domain, DiscoverX KINOMEscan KdELECT (Assay A); read-out: Biochemical TYK2_DiscoverX_JH2_BND_Kd
T1 construct: purchased DiscoverX (KINOMEscan KdELECT service); host or cells: E. coli BL21-derived (T7 phage display) or HEK-293
How it was run: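 Test compounds were titrated in 11 three-fold steps against JH2 fragment captured on ligand-loaded magnetic beads, with 1 h incubation at room temperature and DMSO at 0.9%. Eluted kinase was quantified by qPCR, and Kd was fitted from the dose series.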

[1] = tested on: JAK1/TYK2 pSTAT5 (Tyr694/699) in THP-1 cell line; test: IFNa-stimulated JAK1/TYK2 pSTAT5 (Tyr694/699) inhibition cellular assay, AlphaLISA; format: cell-based; details: Homo sapiens; THP-1 cells, IFNa-stimulated, AlphaLISA (Assay B); read-out: Cellular_THP1_IFNa-pSTATS_TYK2
How it was run: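 THP-1 cells (2e4/well in HBSS) were preincubated with compound (8 points, 6-fold steps from 10000 nM final) for 1 h at 37 °C, then stimulated with IFNa (added at 100 ng/mL) for 30 min. Lysate pSTAT5 was read by AlphaLISA at 615 nm. IC50 came from a 4-parameter fit with bottom 0 and Hill −1.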

T1 sequence (P29597 589-875 limits assumed): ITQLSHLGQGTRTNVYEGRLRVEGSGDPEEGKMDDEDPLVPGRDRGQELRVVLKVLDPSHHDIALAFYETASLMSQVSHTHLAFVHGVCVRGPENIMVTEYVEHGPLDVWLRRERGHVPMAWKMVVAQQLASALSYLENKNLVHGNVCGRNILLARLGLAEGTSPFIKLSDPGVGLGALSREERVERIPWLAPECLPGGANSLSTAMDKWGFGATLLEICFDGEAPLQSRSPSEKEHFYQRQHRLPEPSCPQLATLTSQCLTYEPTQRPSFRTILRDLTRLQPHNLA

Row | Structure (SMILES) | Kd (TYK2 JH2) | IC50 [1]
1 | CNc1ncc(-c2nc3cc(OCF)ccc3o2)c2cc(NC(=O)C3CC3)ncc12 [Example 339, N-(5-(5-(fluoromethoxy)benzo[d]oxazol-2-yl)-8-(methylamino)-2,7-naphthyridin-3-yl)cyclopropanecarboxamide] | ≤ 100 nM | ≤ 500 nM
2 | CNc1ncc(-c2nc3cc(Oc4ccncc4)ccc3o2)c2cc(NC(=O)C3CC3)ncc12 [Example 340, N-(8-(methylamino)-5-(5-(pyridin-4-yloxy)benzo[d]oxazol-2-yl)-2,7-naphthyridin-3-yl)cyclopropanecarboxamide] | ≤ 100 nM | ≤ 500 nM
3 | CNc1ncc(-c2nc3cc(Oc4ccn(C)n4)ccc3o2)c2cc(NC(=O)C3CC3)ncc12 [Example 341, N-(5-(5-((1-methyl-1H-pyrazol-3-yl)oxy)benzo[d]oxazol-2-yl)-8-(methylamino)-2,7-naphthyridin-3-yl)cyclopropanecarboxamide] | ≤ 100 nM | ≤ 500 nM
4 | CNc1ncc(-c2nc3cc(C4=CCOCC4)ccc3o2)c2cc(NC(=O)C3CC3)ncc12 [Example 342, N-(5-(5-(3,6-dihydro-2H-pyran-4-yl)benzo[d]oxazol-2-yl)-8-(methylamino)-2,7-naphthyridin-3-yl)cyclopropanecarboxamide] | ≤ 100 nM | ≤ 500 nM
5 | CNc1ncc(-c2nc3cc(C4CCCO4)ccc3o2)c2cc(NC(=O)C3CC3)ncc12 (centres unmarked) [Example 343, N-(8-(methylamino)-5-(5-(tetrahydrofuran-2-yl)benzo[d]oxazol-2-yl)-2,7-naphthyridin-3-yl)cyclopropanecarboxamide] | ≤ 100 nM | ≤ 500 nM
6 | CNc1ncc(-c2nc3cc(CCC#N)ccc3o2)c2cc(NC(=O)C3CC3)ncc12 [Example 344, N-(5-(5-(2-cyanoethyl)benzo[d]oxazol-2-yl)-8-(methylamino)-2,7-naphthyridin-3-yl)cyclopropanecarboxamide] | ≤ 100 nM | ≤ 500 nM
7 | CNc1ncc(-c2nc3cc(N4CCOCC4)ccc3o2)c2cc(NC(=O)C3CC3)ncc12 [Example 345, N-(8-(methylamino)-5-(5-morpholinobenzo[d]oxazol-2-yl)-2,7-naphthyridin-3-yl)cyclopropanecarboxamide] | ≤ 100 nM | ≤ 500 nM
8 | CNc1ncc(-c2nc3cc(OC4CCC4C(C)(C)OC)ccc3o2)c2cc(NC(=O)C3CC3)ncc12 (centres unmarked) [Example 346, N-(5-(5-(2-(2-methoxypropan-2-yl)cyclobutoxy)benzo[d]oxazol-2-yl)-8-(methylamino)-2,7-naphthyridin-3-yl)cyclopropanecarboxamide] | ≤ 100 nM | ≤ 500 nM
9 | CNc1ncc(-c2nc3cc(O[C@H]4C[C@@H](COC)C4)ccc3o2)c2cc(NC(=O)C3CC3)ncc12 [Example 347, N-(5-(5-((1s,3s)-3-(methoxymethyl)cyclobutoxy)benzo[d]oxazol-2-yl)-8-(methylamino)-2,7-naphthyridin-3-yl)cyclopropanecarboxamide] | ≤ 100 nM | ≤ 500 nM
10 | CNc1ncc(-c2nc3cc(O[C@H]4C[C@H](COC)C4)ccc3o2)c2cc(NC(=O)C3CC3)ncc12 [Example 348, N-(5-(5-((1r,3r)-3-(methoxymethyl)cyclobutoxy)benzo[d]oxazol-2-yl)-8-(methylamino)-2,7-naphthyridin-3-yl)cyclopropanecarboxamide] | ≤ 100 nM | ≤ 500 nM
11 | CNc1ncc(-c2nc3cc(OCC45CCCN4CCC5)ccc3o2)c2cc(NC(=O)C3CC3)ncc12 [Example 349, N-(8-(methylamino)-5-(5-((tetrahydro-1H-pyrrolizin-7a(5H)-yl)methoxy)benzo[d]oxazol-2-yl)-2,7-naphthyridin-3-yl)cyclopropanecarboxamide] | ≤ 100 nM | ≤ 500 nM
12 | CNc1ncc(-c2nc3cc(O[C@@H](C)COC)ccc3o2)c2cc(NC(=O)C3CC3)ncc12 [Example 350, (S)—N-(5-(5-((1-methoxypropan-2-yl)oxy)benzo[d]oxazol-2-yl)-8-(methylamino)-2,7-naphthyridin-3-yl)cyclopropanecarboxamide] | ≤ 100 nM | ≤ 500 nM
13 | CNc1ncc(-c2nc3cc(O[C@H](C)COC)ccc3o2)c2cc(NC(=O)C3CC3)ncc12 [Example 351, (R)—N-(5-(5-((1-methoxypropan-2-yl)oxy)benzo[d]oxazol-2-yl)-8-(methylamino)-2,7-naphthyridin-3-yl)cyclopropanecarboxamide] | ≤ 100 nM | ≤ 500 nM
14 | CNc1ncc(-c2nc3cc(OCC(C)(C)N4CCOCC4)ccc3o2)c2cc(NC(=O)C3CC3)ncc12 [Example 352, N-(5-(5-(2-methyl-2-morpholinopropoxy)benzo[d]oxazol-2-yl)-8-(methylamino)-2,7-naphthyridin-3-yl)cyclopropanecarboxamide] | ≤ 100 nM | ≤ 500 nM
15 | CNc1ncc(-c2nc3cc(OCC[S+](C)[O-])ccc3o2)c2cc(NC(=O)C3CC3)ncc12 (centres unmarked) [Example 353, N-(8-(methylamino)-5-(5-(2-(methylsulfinyl)ethoxy)benzo[d]oxazol-2-yl)-2,7-naphthyridin-3-yl)cyclopropanecarboxamide] | ≤ 100 nM | ≤ 500 nM
16 | CNc1ncc(-c2nc3cc(OCCS(C)(=O)=O)ccc3o2)c2cc(NC(=O)C3CC3)ncc12 [Example 354, N-(8-(methylamino)-5-(5-(2-(methylsulfonyl)ethoxy)benzo[d]oxazol-2-yl)-2,7-naphthyridin-3-yl)cyclopropanecarboxamide] | ≤ 100 nM | ≤ 500 nM
17 | CNc1ncc(-c2nc3ccc(N4CCOCC4)cc3o2)c2cc(NC(=O)C3CC3)ncc12 [Example 355, N-(8-(methylamino)-5-(6-morpholinobenzo[d]oxazol-2-yl)-2,7-naphthyridin-3-yl)cyclopropanecarboxamide] | ≤ 100 nM | ≤ 500 nM
18 | CNc1ncc(-c2nc3cnccc3o2)c2cc(NC(=O)C3CC3)ncc12 [Example 356, N-(8-(methylamino)-5-(oxazolo[4,5-c]pyridin-2-yl)-2,7-naphthyridin-3-yl)cyclopropanecarboxamide] | ≤ 100 nM | ≤ 500 nM
19 | CNc1ncc(-c2nc3ccncc3o2)c2cc(NC(=O)C3CC3)ncc12 [Example 357, N-(8-(methylamino)-5-(oxazolo[5,4-c]pyridin-2-yl)-2,7-naphthyridin-3-yl)cyclopropanecarboxamide] | ≤ 100 nM | > 500 nM
20 | CNc1ncc(-c2nc3ncccc3o2)c2cc(NC(=O)C3CC3)ncc12 [Example 358, N-(8-(methylamino)-5-(oxazolo[4,5-b]pyridin-2-yl)-2,7-naphthyridin-3-yl)cyclopropanecarboxamide] | ≤ 100 nM | ≤ 500 nM
21 | CNc1ncc(-c2nc3cc(C4CCNCC4)ccc3o2)c2cc(NC(=O)C3CC3)ncc12 [Example 359, N-(8-(methylamino)-5-(5-(piperidin-4-yl)benzo[d]oxazol-2-yl)-2,7-naphthyridin-3-yl)cyclopropanecarboxamide 2,2,2-trifluoroacetate] | ≤ 100 nM | ≤ 500 nM
22 | CNc1ncc(-c2nc3cc(C4CCN(C5COC5)CC4)ccc3o2)c2cc(NC(=O)C3CC3)ncc12 [Example 360, N-(8-(methylamino)-5-(5-(1-(oxetan-3-yl)piperidin-4-yl)benzo[d]oxazol-2-yl)-2,7-naphthyridin-3-yl)cyclopropanecarboxamide] | ≤ 100 nM | ≤ 500 nM
23 | CNc1ncc(-c2nc3cc(C4CCN(C)CC4)ccc3o2)c2cc(NC(=O)C3CC3)ncc12 [Example 361, N-(8-(methylamino)-5-(5-(1-methylpiperidin-4-yl)benzo[d]oxazol-2-yl)-2,7-naphthyridin-3-yl)cyclopropanecarboxamide] | ≤ 100 nM | ≤ 500 nM
24 | [2H]C([2H])([2H])Nc1ncc(-c2nc3cc(OC)ccc3o2)c2cc(NC(=O)C3CC3)ncc12 [Example 362, N-(5-(5-methoxybenzo[d]oxazol-2-yl)-8-((methyl-d3)amino)-2,7-naphthyridin-3-yl)cyclopropanecarboxamide] | ≤ 100 nM | ≤ 500 nM
25 | [2H]C([2H])([2H])Nc1ncc(-c2nc3c(OC)cccc3o2)c2cc(NC(=O)C3CC3)ncc12 [Example 363, N-(5-(4-methoxybenzo[d]oxazol-2-yl)-8-((methyl-d3)amino)-2,7-naphthyridin-3-yl)cyclopropanecarboxamide] | ≤ 100 nM | ≤ 500 nM
26 | [2H]C([2H])([2H])Nc1ncc(-c2nc3cc(N4CCOCC4)ccc3o2)c2cc(NC(=O)C3CC3)ncc12 [Example 364, N-(8-((methyl-d3)amino)-5-(5-morpholinobenzo[d]oxazol-2-yl)-2,7-naphthyridin-3-yl)cyclopropanecarboxamide] | ≤ 100 nM | ≤ 500 nM
27 | [2H]C([2H])([2H])Nc1ncc(-c2nc3cc(OC([2H])([2H])[2H])ccc3o2)c2cc(NC(=O)C3CC3)ncc12 [Example 365, N-(5-(5-(methoxy-d3)benzo[d]oxazol-2-yl)-8-((methyl-d3)amino)-2,7-naphthyridin-3-yl)cyclopropanecarboxamide] | ≤ 100 nM | ≤ 500 nM
28 | CCNc1ncc(-c2nc3cc(N4CCO[C@@H](C)C4)ccc3o2)c2cc(NC(=O)C3CC3)ncc12 [Example 366, (S)—N-(8-(ethylamino)-5-(5-(2-methylmorpholino)benzo[d]oxazol-2-yl)-2,7-naphthyridin-3-yl)cyclopropanecarboxamide] | ≤ 100 nM | ≤ 500 nM

Source: patent US20240025906A1 (NEURON23, INC., priority 2022, published 2024)
